The values below come from patent US20240067693A1, “POLYPEPTIDES AND USES THEREOF” (MEDIMMUNE LIMITED, priority 2020, published 2024).

Numbered stars: 1 amine (or outer) side, 2 acyl side, 3 side chain; on linkers, the order of the positions; unused ones are H or OH. Bridge positions count the residues as written; N and C are the ends. Square brackets hold non-standard residues; d marks the D form. Side chains are listed from the residue outwards. Peptide text beside a SMILES is read from it. * marks the point of attachment. C18 diacid = O=C(O)CCCCCCCCCCCCCCCCC(=O)*; γGlu = O=C(O)[C@H](CCC(=O)[*:2])N[*:1]; Dab = NCC[C@H](N)C(=O)O; Aib = CC(C)(N)C(=O)O

The target of assay [1] is T1, human calcitonin receptor (hCTR) (Homo sapiens, UniProt P30988).
T1 construct: expressed in transfected cells
T1 sequence (P30988 25-474): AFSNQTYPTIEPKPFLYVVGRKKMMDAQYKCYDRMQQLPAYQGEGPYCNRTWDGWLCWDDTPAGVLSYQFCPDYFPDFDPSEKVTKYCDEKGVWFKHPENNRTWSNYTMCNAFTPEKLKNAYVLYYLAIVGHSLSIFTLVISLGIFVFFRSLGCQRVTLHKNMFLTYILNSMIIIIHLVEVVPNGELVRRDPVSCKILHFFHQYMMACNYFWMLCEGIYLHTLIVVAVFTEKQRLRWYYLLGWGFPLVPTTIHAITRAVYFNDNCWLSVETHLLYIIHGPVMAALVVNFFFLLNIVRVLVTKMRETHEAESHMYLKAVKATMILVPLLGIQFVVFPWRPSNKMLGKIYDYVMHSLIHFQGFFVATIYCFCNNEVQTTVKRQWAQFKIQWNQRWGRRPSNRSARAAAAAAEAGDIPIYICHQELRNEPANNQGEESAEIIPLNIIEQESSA
Briefly: cAMP production in 1321N1 cells with stable recombinant expression of human calcitonin receptor (hCTR). It counts as cell-based. The following applies: cAMP, 1321N1 cells, assay buffer with 0.1% BSA; read-out: EC50 (pM) hCTR. A digest of the protocol:
(§1)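 EC50 values come from 4-parameter logistic fits of HTRF cAMP signal, normalised to maximal calcitonin or amylin effect. Peptides were tested in duplicate for 30 min at RT in IBMX-containing (0.5 mM) BSA/HEPES buffer pH 7.4 on stable 1321N1 (human CTR, AMYR3) or HEK (rat CTR, AMYR3) lines.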
(In general: Cyclic AMP is a second messenger, typically raised through Gs and lowered through Gi signalling.)

The target in assay [2] is T2, human amylin receptor (calcitonin receptor co-expressed with receptor activity modifying protein, RAMP3) (hAMYR3) (Homo sapiens, UniProt O60896+P30988).
T2 construct: expressed in transfected cells
T2 sequence (P30988 25-474): T1 sequence (P30988 25-474)
T2 sequence (O60896 24-148 partner): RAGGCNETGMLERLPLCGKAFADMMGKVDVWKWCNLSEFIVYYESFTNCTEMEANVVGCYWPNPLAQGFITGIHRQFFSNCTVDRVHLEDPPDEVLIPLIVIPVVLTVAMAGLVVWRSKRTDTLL
Briefly: cAMP production in 1321N1 cells with stable recombinant expression of human amylin receptor (hAMYR3). The assay is classed as cell-based. The settings on record: for Ratio (selectivity hAMYR vs hCTR, ratio of EC50 values at the two receptors): EC50 hCTR / EC50 hAMYR3; for EC50: cAMP, 1321N1 cells, assay buffer with 0.1% BSA, read-out: EC50 (pM) hAMYR3. The gist of the method:
as §1

The EC50 is the concentration giving half of the maximal effect. Turning to `CC[C@H](C)[C@H](NC(=O)[C@@H]1CCCN1C(=O)CNC(=O)[C@H](Cc1ccccc1)NC(=O)[C@H](CC(N)=O)NC(=O)C(C)(C)NC(=O)[C@H](CO)NC(=O)[C@H](CO)NC(=O)[C@H](Cc1c[nH]cn1)NC(=O)[C@@H](NC(=O)[C@H](CC(C)C)NC(=O)[C@H](Cc1ccccc1)NC(=O)[C@H](CC(N)=O)NC(=O)[C@H](C)NC(=O)[C@H](CC(C)C)NC(=O)[C@H](CCCNC(=N)N)NC(=O)[C@H](CCC(N)=O)NC(=O)[C@@H](NC(=O)[C@H](C)NC(=O)[C@@H]1CSSC[C@H](NC(=O)[C@H](CCCCN)NC(=O)[C@@H](N)CCCCNC(=O)CC[C@H](NC(=O)CCCCCCCCCCCCCCCCC(=O)O)C(=O)O)C(=O)N[C@@H](CC(N)=O)C(=O)N[C@@H]([C@@H](C)O)C(=O)N[C@@H](C)C(=O)N[C@@H]([C@@H](C)O)C(=O)N1)[C@@H](C)O)C(C)C)C(=O)N[C@@H](CC(C)C)C(=O)N1CCC[C@H]1C(=O)N1CCC[C@H]1C(=O)N[C@H](C(=O)N[C@@H](CC(N)=O)C(=O)N[C@H](C(=O)NC(C)(C)C(=O)N[C@@H](CO)C(=O)N[C@@H](CC(N)=O)C(=O)N[C@H](C(=O)N[C@@H](Cc1ccc(O)cc1)C(N)=O)[C@@H](C)O)C(C)C)[C@@H](C)O` [Peptide 81, K(γE-C18diacid)K[CNTATC]ATQRLANFLVHSS(Aib)NFGPILPPTNV(Aib)SNTY-amide] (H-K([γGlu-C18 diacid])KCNTATCATQRLANFLVHSS[Aib]NFGPILPPTNV[Aib]SNTY-NH2; disulfide 3-8; N-terminus assumed), the EC50 in assay [1] worked out at 2760 pM. In addition, in assay [2], the “Ratio (selectivity hAMYR vs hCTR, ratio of EC50 values at the two receptors)” value came to 7 and the EC50 is 404 pM.

Turning to `CC[C@H](C)[C@H](NC(=O)[C@@H]1CCCN1C(=O)CNC(=O)[C@H](Cc1ccccc1)NC(=O)C(C)(C)NC(=O)[C@H](CC(N)=O)NC(=O)[C@H](CO)NC(=O)[C@H](CO)NC(=O)[C@H](Cc1c[nH]cn1)NC(=O)[C@@H](NC(=O)[C@H](CC(C)C)NC(=O)[C@H](Cc1ccccc1)NC(=O)[C@H](CC(N)=O)NC(=O)[C@H](C)NC(=O)[C@H](CC(C)C)NC(=O)[C@H](CCCNC(=N)N)NC(=O)[C@H](CCC(N)=O)NC(=O)[C@@H](NC(=O)[C@H](C)NC(=O)[C@@H]1CSSC[C@H](NC(=O)[C@H](CCCCN)NC(=O)[C@@H](N)CCCCNC(=O)CC[C@H](NC(=O)CCCCCCCCCCCCCCCCC(=O)O)C(=O)O)C(=O)N[C@@H](CC(N)=O)C(=O)N[C@@H]([C@@H](C)O)C(=O)N[C@@H](C)C(=O)N[C@@H]([C@@H](C)O)C(=O)N1)[C@@H](C)O)C(C)C)C(=O)N[C@@H](CC(C)C)C(=O)N1CCC[C@H]1C(=O)N1CCC[C@H]1C(=O)N[C@H](C(=O)N[C@@H](CC(N)=O)C(=O)N[C@H](C(=O)NCC(=O)N[C@@H](CO)C(=O)N[C@@H](CC(N)=O)C(=O)N[C@H](C(=O)N[C@@H](Cc1ccc(O)cc1)C(N)=O)[C@@H](C)O)C(C)C)[C@@H](C)O` [Peptide 109, K(γE-C18diacid)K[CNTATC]ATQRLANFLVHSSN(Aib)FGPILPPTNVGSNTY-amide] (H-K([γGlu-C18 diacid])KCNTATCATQRLANFLVHSSN[Aib]FGPILPPTNVGSNTY-NH2; disulfide 3-8; N-terminus assumed), in assay [1], the concentration for a half-maximal effect (EC50) was 176 pM. Further, in assay [2], the “Ratio (selectivity hAMYR vs hCTR, ratio of EC50 values at the two receptors)” value is on record as 2 and the EC50 came out at 82 pM.

Consider `CC[C@H](C)[C@H](NC(=O)[C@@H]1CCCN1C(=O)CNC(=O)[C@H](Cc1ccccc1)NC(=O)[C@H](CC(N)=O)NC(=O)C(C)(C)NC(=O)[C@H](CO)NC(=O)[C@H](CO)NC(=O)[C@H](Cc1c[nH]cn1)NC(=O)[C@@H](NC(=O)[C@H](CC(C)C)NC(=O)[C@H](Cc1ccccc1)NC(=O)[C@H](CC(N)=O)NC(=O)[C@H](C)NC(=O)[C@H](CC(C)C)NC(=O)[C@H](CCCNC(=N)N)NC(=O)[C@H](CCC(N)=O)NC(=O)[C@@H](NC(=O)[C@H](C)NC(=O)[C@@H]1CSSC[C@H](NC(=O)[C@H](CCCCN)NC(=O)[C@@H](N)CCCCNC(=O)CC[C@H](NC(=O)CCCCCCCCCCCCCCCCC(=O)O)C(=O)O)C(=O)N[C@@H](CC(N)=O)C(=O)N[C@@H]([C@@H](C)O)C(=O)N[C@@H](C)C(=O)N[C@@H]([C@@H](C)O)C(=O)N1)[C@@H](C)O)C(C)C)C(=O)N[C@@H](CC(C)C)C(=O)N1CCC[C@H]1C(=O)N1CCC[C@H]1C(=O)N[C@H](C(=O)N[C@@H](CC(N)=O)C(=O)N[C@H](C(=O)NCC(=O)N[C@@H](CO)C(=O)N[C@@H](CCC(=O)O)C(=O)N[C@H](C(=O)N[C@@H](Cc1ccc(O)cc1)C(N)=O)[C@@H](C)O)C(C)C)[C@@H](C)O` [Peptide 42, K(γE-C18diacid)K[CNTATC]ATQRLANFLVHSS(Aib)NFGPILPPTNVGSETY-amide] (H-K([γGlu-C18 diacid])KCNTATCATQRLANFLVHSS[Aib]NFGPILPPTNVGSETY-NH2; disulfide 3-8), for which, in assay [1], the EC50 worked out at 2950 pM. In assay [2], the “Ratio (selectivity hAMYR vs hCTR, ratio of EC50 values at the two receptors)” value came out at 6 and the EC50 turned out to be 470 pM.

Take `CC[C@H](C)[C@@H]1NC(=O)[C@H](CC(N)=O)NC(=O)[C@@H](NC(=O)[C@@H](N)CCCCNC(=O)CC[C@H](NC(=O)CC[C@H](NC(=O)CCCCCCCCCCCCCCCCC(=O)O)C(=O)O)C(=O)O)CSSC[C@@H](C(=O)N[C@@H](C)C(=O)N[C@H](C(=O)N[C@@H](CCC(N)=O)C(=O)N[C@@H](CCCNC(=N)N)C(=O)N[C@@H](CC(C)C)C(=O)N[C@@H](C)C(=O)N[C@@H](CC(N)=O)C(=O)N[C@@H](Cc2ccccc2)C(=O)N[C@@H](CC(C)C)C(=O)N[C@H](C(=O)N[C@@H](Cc2c[nH]cn2)C(=O)N[C@@H](CO)C(=O)N[C@@H](CO)C(=O)N[C@@H](CCN)C(=O)N[C@@H](CC(N)=O)C(=O)N[C@@H](Cc2ccccc2)C(=O)NCC(=O)N2CCC[C@H]2C(=O)N[C@H](C(=O)N[C@@H](CC(C)C)C(=O)N2CCC[C@H]2C(=O)N2CCC[C@H]2C(=O)N[C@H](C(=O)N[C@@H](CC(N)=O)C(=O)N[C@H](C(=O)NCC(=O)N[C@@H](CO)C(=O)N[C@@H](CCCNC(=N)N)C(=O)N[C@H](C(=O)N[C@@H](Cc2ccc(O)cc2)C(N)=O)[C@@H](C)O)C(C)C)[C@@H](C)O)[C@@H](C)CC)C(C)C)[C@@H](C)O)NC(=O)[C@H]([C@@H](C)O)NC(=O)[C@H](C)NC1=O` [Peptide 27, K(γE-γE-C18diacid)[CNIATC]ATQRLANFLVHSS(Dab)NFGPILPPTNVGSRTY-amide] (H-K([γGlu-γGlu-C18 diacid])CNIATCATQRLANFLVHSS[Dab]NFGPILPPTNVGSRTY-NH2; disulfide 2-7; N-terminus assumed): the EC50 in assay [1] worked out at 731 pM; in assay [2] it was 134 pM. Also, the “Ratio (selectivity hAMYR vs hCTR, ratio of EC50 values at the two receptors)” value in assay [2] was 5.

On to `CC[C@H](C)[C@H](NC(=O)[C@@H]1CCCN1C(=O)CNC(=O)[C@H](Cc1ccccc1)NC(=O)[C@H](CC(N)=O)NC(=O)[C@H](CC(N)=O)NC(=O)[C@H](CO)NC(=O)[C@H](CO)NC(=O)[C@H](Cc1c[nH]cn1)NC(=O)C(C)(C)NC(=O)[C@H](CC(C)C)NC(=O)[C@H](Cc1ccccc1)NC(=O)[C@H](CC(N)=O)NC(=O)[C@H](C)NC(=O)[C@H](CC(C)C)NC(=O)[C@H](CCCNC(=N)N)NC(=O)[C@H](CCC(N)=O)NC(=O)[C@@H](NC(=O)[C@H](C)NC(=O)[C@@H]1CSSC[C@H](NC(=O)[C@H](CCCCN)NC(=O)[C@@H](N)CCCCNC(=O)CC[C@H](NC(=O)CCCCCCCCCCCCCCCCC(=O)O)C(=O)O)C(=O)N[C@@H](CC(N)=O)C(=O)N[C@@H]([C@@H](C)O)C(=O)N[C@@H](C)C(=O)N[C@@H]([C@@H](C)O)C(=O)N1)[C@@H](C)O)C(=O)N[C@@H](CC(C)C)C(=O)N1CCC[C@H]1C(=O)N1CCC[C@H]1C(=O)N[C@H](C(=O)N[C@@H](CC(N)=O)C(=O)N[C@H](C(=O)NCC(=O)N1CCC[C@H]1C(=O)N[C@@H](CC(N)=O)C(=O)N[C@H](C(=O)N[C@@H](Cc1ccc(O)cc1)C(N)=O)[C@@H](C)O)C(C)C)[C@@H](C)O` [Peptide 148] (H-K([γGlu-C18 diacid])KCNTATCATQRLANFL[Aib]HSSNNFGPILPPTNVGPNTY-NH2; disulfide 3-8), for which the EC50 in assay [1] amounted to 728 pM. Further, in assay [2], the “Ratio (selectivity hAMYR vs hCTR, ratio of EC50 values at the two receptors)” value is 3.8 and the concentration giving a half-maximal response (EC50) is 191 pM.
